Experimental data from patent publication US20220322803A1 (KONKUK UNIVERSITY INDUSTRIAL COOPERATION CORP, priority 2019, published 2022).

How the values were obtained:
[1] = Straight perm of curly hair; conditions: second agent (gel with 0.5% xanthan gum for the waters) oxidized 10 minutes
Method: The first agent used in straight perm was Standard of Hair […] Two Way Straight (UCL, Incheon). The second agent used in the perm was a mixture of Standard of Hair […] Two Way Straight (UCL, Incheon) and xanthan gum in each hydrogen water and electrolyzed water. Tap water was used to generate the used electrolyzed hydrogen water and electrolyzed water. […] To each of these, xanthan gum was added to 0.5% and mixed to form a gel. The perm process proceeded as follows. The first agent was applied to the hair and softened at 37° C. for 30 minutes. […] After the oxidation process was completed, the hair was washed, photographed, and measured.

[2] = Perm of brown hair, hydrogen water vs hydrogen peroxide as second agent; conditions: 30 washes, hydrogen water 10 times at 2-minute intervals, hydrogen peroxide left 10 minutes
Method: According to the method used in a general beauty salon using a rod, cysteine treatment as a reduction agent, intermediate washing, setting, oxidation agent treatment, and measurement after washing were performed in the order. Brown hair was treated with a reduction agent (Hair 119 Clinic SuBoon Perm, Eson Chemical, Korea) and left at 37° C. for 5 minutes. […] Then the hair was separated. After washing them once, the length of perm hair was measured. After that, the perm hair length was measured when repeatedly washed 30 times, once a day (FIG. 3C). Natural Shampoo (Repit, Korea) was used as a cleaning agent. A method of preparing hydrogen water is as follows. After adding NaCl to distilled water to prepare a 0.05% NaCl solution, salted distilled water was boiled for about 5 minutes to remove dissolved oxygen as much as possible, and then quenched to 25° C. (water cooling).

[3] = Cold perm with 25°C electrolyzed water sprayed as second agent; conditions: hydrogen peroxide as second agent; basis of commercial suitability; hair 27 cm

- split ends / hair surface (bleached, dyed hair after perm): had split ends
SMILES: OO [hydrogen peroxide]
- result of straight perm treatment [1]: curly hair was well straightened
- dye eluted (washing once after the perm treatment, from L value): 11.43%
- sagging of wave [2]: sagging was seen in 30 washes
- length of the perm hair after washing once [3]: about 22 cm
